Assay results: ChEMBL document CHEMBL1201862, “PubChem BioAssay data set” (2004)
Activity calls are given as the source filed them.

Assays:
[1] = target: Tyrosine-protein phosphatase non-receptor type 22 (Homo sapiens, UniProt Q9Y2R2); test: PTPN22 phosphatase inhibition, dose response, selectivity assay for STEP inhibitor project, biochemical (AID 624241); assay type: functional
[2] = target: T1, Tyrosine-protein phosphatase non-receptor type 5 (Homo sapiens, UniProt P54829); test: STEP phosphatase inhibitors, confirmation, biochemical, fluorescence intensity, uHTS hits (AID 602372); assay type: functional; conditions: read-out: IC50_Mean
T1 sequence (P54829 whole entry): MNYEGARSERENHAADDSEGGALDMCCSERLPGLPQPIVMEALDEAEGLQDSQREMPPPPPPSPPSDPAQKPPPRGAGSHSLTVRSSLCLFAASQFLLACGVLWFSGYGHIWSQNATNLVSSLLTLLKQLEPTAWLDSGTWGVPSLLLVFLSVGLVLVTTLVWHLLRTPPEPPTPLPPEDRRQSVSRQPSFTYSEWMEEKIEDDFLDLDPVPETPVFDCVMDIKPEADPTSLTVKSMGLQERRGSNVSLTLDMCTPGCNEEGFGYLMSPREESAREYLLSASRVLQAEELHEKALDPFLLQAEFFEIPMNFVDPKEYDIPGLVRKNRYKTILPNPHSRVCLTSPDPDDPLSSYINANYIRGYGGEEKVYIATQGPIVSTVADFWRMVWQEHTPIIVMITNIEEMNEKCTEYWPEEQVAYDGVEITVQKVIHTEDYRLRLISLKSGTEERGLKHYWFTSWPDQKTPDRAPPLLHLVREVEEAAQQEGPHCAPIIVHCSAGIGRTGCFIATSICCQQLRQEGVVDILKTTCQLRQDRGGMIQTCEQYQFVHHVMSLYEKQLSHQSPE

[3] = target: T2, Tyrosine-protein phosphatase non-receptor type 11 (Homo sapiens, UniProt Q06124); test: SHP2 phosphatase inhibition, dose response, selectivity assay for STEP inhibitor project, biochemical (AID 602367); assay type: functional; conditions: read-out: IC50_Mean
T2 sequence (Q06124 whole entry): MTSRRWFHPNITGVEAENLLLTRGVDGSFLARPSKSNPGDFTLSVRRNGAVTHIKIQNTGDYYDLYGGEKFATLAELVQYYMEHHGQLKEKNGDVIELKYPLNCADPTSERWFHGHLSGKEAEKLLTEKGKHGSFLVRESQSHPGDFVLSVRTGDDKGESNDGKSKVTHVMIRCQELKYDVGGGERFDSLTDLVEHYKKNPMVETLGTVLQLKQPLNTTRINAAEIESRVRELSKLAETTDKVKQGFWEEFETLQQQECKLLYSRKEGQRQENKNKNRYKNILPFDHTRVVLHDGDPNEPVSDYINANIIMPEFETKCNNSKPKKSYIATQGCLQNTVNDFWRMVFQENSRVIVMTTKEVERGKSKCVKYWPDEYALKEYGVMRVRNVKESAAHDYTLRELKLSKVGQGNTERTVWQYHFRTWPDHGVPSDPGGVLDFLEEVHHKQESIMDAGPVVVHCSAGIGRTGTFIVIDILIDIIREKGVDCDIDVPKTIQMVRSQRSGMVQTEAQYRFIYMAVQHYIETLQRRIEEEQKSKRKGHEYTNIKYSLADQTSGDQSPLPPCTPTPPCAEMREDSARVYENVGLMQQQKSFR

[4] = target: Dual specificity protein phosphatase 3 (Homo sapiens, UniProt P51452); test: VHR phosphatase inhibition, dose response, selectivity assay for STEP inhibitor project, biochemical (AID 602374); assay type: functional; conditions: read-out: IC50_Mean
[5] = target: T3, Sentrin-specific protease 8 (Homo sapiens, UniProt Q96LD8); assay type: functional
T3 sequence (Q96LD8 whole entry): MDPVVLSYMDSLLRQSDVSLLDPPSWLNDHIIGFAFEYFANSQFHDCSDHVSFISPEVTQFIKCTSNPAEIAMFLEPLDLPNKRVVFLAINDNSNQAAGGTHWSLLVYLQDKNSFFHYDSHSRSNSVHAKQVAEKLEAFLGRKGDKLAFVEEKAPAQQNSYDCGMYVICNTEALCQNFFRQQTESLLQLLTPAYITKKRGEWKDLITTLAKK

[6] = target: T4, Caspase-3 (Homo sapiens, UniProt P42574); test: Dose-response confirmation of uHTS inhibitor hits of Sentrin-Specific Protease 8 in a Caspase-3 Fluorescence assay.; assay type: functional
T4 sequence (P42574 whole entry): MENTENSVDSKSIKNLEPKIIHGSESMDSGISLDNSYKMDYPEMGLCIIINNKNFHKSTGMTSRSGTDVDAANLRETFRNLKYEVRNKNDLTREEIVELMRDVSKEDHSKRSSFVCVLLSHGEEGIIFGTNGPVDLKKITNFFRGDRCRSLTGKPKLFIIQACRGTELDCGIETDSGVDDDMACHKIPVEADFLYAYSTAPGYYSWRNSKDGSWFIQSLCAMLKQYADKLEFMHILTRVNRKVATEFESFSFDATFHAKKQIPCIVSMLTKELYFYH

[7] = target: T3, Sentrin-specific protease 8; assay type: functional; remark: listed apart in the source
[8] = target: Prothrombin (Bos taurus, UniProt P00735); test: thrombin inhibition, dose response, biochemical, fluorescence polarization, uHTS hits (AID 602369); assay type: functional
[9] = target: 26S proteasome non-ATPase regulatory subunit 14 (Homo sapiens, UniProt O00487); test: inhibition of proteasome subunit RPN11 – biochemical, fluorescence polarization, uHTS hits, confirmation (AID 602368); assay type: functional
[10] = target: 72 kDa type IV collagenase (Homo sapiens, UniProt P08253); test: Dose Response validation of uHTS RPN11 inhibitor hits using a MMP-2 Fluorescence assay.; assay type: functional
[11] = target: T5, DNA repair protein RAD52 homolog (Homo sapiens, UniProt P43351); assay type: functional, biochemical
T5 sequence (P43351 whole entry): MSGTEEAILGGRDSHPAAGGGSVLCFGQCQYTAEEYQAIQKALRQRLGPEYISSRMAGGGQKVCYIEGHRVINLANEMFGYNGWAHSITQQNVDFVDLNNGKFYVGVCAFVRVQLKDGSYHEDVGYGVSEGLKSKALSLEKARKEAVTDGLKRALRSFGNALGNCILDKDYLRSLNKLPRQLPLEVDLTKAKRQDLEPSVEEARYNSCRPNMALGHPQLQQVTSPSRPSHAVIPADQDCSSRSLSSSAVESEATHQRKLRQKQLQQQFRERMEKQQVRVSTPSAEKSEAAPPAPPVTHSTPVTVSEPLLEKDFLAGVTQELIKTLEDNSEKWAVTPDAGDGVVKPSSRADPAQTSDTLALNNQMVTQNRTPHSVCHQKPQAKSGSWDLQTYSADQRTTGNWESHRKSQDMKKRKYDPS

[12] = target: DNA repair and recombination protein RAD54-like (Homo sapiens, UniProt Q92698); test: inhibitors of human RAD54 branch migration, confirmation, biochemical, fluorescence, cherry-picked samples, dose series (AID 651657); assay type: functional
[13] = tested on: Vero; test: cells; assay type: functional; conditions: Chlorocebus sabaeus
[14] = target: T6, Corticotropin-releasing factor receptor 2/Corticotropin-releasing factor-binding protein (Homo sapiens, UniProt P24387+Q13324); test: activators of CRF receptor 2 with binding protein – uHTS hits, confirmation (AID 602473); assay type: functional; conditions: read-out: EC50_Mean
T6 sequence (Q13324 whole entry): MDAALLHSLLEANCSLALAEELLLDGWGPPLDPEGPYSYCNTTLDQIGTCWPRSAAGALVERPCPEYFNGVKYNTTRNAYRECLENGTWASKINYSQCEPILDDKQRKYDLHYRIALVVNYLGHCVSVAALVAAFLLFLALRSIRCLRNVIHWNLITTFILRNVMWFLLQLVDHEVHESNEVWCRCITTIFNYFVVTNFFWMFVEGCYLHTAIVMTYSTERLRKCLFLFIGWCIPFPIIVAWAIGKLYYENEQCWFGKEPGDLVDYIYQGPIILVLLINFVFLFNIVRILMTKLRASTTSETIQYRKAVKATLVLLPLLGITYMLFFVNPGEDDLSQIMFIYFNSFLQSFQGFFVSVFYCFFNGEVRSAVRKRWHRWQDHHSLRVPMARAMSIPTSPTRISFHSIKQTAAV
T6 sequence (P24387 whole entry): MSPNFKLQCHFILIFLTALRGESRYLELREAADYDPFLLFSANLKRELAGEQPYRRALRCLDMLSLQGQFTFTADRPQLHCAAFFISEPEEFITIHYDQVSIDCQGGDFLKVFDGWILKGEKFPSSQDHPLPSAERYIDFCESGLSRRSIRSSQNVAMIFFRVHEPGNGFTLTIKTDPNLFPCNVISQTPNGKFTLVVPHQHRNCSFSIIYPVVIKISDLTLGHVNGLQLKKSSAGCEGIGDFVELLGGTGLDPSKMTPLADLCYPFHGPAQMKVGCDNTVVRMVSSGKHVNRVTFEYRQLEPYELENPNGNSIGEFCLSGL

Chain of 72 kDa type IV collagenase (P08253 whole entry): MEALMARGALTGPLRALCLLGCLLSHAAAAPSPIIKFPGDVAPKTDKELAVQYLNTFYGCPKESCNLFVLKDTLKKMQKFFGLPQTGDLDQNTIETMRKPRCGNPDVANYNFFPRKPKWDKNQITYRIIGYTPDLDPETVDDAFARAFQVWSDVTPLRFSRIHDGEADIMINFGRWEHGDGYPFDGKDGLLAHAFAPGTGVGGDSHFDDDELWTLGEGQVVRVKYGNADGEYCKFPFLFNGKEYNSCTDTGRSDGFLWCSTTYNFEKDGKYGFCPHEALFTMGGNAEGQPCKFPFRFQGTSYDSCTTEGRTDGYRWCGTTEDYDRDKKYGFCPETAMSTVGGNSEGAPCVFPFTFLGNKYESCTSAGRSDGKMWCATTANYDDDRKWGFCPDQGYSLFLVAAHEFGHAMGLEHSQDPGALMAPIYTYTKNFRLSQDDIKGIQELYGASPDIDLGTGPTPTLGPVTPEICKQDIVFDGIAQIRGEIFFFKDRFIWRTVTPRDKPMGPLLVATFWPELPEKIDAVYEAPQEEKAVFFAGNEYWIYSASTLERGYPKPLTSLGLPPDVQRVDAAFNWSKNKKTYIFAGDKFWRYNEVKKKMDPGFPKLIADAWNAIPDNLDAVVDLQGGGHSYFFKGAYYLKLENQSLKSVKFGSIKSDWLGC
Chain of DNA repair and recombination protein RAD54-like (Q92698 whole entry): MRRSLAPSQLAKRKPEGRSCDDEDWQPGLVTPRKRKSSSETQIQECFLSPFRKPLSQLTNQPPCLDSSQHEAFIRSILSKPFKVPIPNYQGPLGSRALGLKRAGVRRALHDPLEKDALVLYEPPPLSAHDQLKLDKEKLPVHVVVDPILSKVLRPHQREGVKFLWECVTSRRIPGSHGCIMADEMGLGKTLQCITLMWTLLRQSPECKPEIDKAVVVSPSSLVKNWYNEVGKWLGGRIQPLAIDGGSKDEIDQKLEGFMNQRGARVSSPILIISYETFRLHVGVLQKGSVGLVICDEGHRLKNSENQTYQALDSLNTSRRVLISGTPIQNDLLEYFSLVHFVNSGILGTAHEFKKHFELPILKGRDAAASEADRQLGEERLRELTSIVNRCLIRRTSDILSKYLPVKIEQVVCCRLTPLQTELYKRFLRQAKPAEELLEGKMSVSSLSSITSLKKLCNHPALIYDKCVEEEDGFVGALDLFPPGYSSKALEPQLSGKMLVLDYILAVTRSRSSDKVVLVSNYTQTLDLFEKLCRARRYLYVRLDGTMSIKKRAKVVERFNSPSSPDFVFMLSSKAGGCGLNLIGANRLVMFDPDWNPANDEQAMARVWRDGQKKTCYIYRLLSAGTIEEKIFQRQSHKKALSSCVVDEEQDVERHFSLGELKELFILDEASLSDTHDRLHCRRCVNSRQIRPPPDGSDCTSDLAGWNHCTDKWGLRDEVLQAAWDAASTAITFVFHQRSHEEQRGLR
Chain of 26S proteasome non-ATPase regulatory subunit 14 (O00487 whole entry): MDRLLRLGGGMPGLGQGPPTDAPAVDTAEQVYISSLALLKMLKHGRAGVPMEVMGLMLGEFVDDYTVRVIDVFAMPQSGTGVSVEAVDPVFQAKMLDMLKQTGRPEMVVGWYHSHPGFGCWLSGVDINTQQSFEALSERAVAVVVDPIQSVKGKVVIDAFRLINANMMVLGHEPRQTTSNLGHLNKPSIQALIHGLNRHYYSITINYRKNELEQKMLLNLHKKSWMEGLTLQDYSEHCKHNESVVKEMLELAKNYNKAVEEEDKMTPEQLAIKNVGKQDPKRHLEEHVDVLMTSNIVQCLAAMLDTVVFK
Chain of Dual specificity protein phosphatase 3 (P51452 whole entry): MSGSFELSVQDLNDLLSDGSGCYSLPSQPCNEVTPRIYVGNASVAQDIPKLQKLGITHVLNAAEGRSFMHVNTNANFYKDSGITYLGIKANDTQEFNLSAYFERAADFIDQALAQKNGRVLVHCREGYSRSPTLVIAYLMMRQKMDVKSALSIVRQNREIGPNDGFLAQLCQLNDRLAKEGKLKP
Chain of Tyrosine-protein phosphatase non-receptor type 22 (Q9Y2R2 whole entry): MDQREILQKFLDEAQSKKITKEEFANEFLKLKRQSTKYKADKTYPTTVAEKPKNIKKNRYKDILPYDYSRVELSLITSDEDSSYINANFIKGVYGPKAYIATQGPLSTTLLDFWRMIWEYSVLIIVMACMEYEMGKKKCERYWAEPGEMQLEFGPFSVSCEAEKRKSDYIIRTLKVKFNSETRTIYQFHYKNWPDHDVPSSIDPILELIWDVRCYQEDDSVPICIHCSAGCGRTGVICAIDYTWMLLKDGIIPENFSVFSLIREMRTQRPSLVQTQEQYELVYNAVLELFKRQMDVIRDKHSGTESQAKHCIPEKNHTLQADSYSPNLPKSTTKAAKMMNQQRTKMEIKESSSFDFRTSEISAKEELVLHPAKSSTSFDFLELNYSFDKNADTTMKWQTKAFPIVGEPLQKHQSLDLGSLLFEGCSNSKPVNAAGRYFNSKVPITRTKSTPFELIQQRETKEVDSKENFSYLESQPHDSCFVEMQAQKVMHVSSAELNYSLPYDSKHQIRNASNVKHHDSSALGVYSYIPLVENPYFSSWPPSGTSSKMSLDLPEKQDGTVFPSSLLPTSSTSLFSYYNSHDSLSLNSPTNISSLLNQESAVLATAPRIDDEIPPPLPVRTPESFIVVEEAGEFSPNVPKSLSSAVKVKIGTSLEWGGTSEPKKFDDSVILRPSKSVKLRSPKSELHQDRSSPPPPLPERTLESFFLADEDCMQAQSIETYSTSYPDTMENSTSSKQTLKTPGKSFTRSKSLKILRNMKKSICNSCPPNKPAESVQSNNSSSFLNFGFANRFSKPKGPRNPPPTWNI

COc1ccccc1NS(=O)(=O)c1cc(NC(=O)c2sccc2C)ccc1N1CCCC1
IC50 [1]: 25.9 µM (inactive) | IC50 [2]: 2.73 µM (active) | IC50 [3]: 0.665 µM (active) | IC50 [4]: 0.163 µM (active)

O=C(CCC(=O)N1CCc2ccccc2C1)N1CCN(S(=O)(=O)c2ccccc2)CC1
IC50 [5]: 12.9 µM (active) | IC50 [6]: 50 µM (active) | IC50 [7]: 22.2 µM (active)

Cc1ccc(N2C(=O)/C(=C\NN3CCCCC3c3cccnc3)C(=O)NC2=S)cc1 (stereo not drawn)
IC50 [8]: 71.3 µM (active) | IC50 [9]: 31.7 µM (active) | IC50 [10]: > 100 µM (inactive)

N=c1n(CCN2CCCCC2)c2ccccc2n1CC(=O)c1cccc([N+](=O)[O-])c1
AC50 [11]: 9.9 µM (active) | AC50 [12]: 23.7 µM (active)

O=c1c2ccccc2sc2ccc(NCCCN3CCOCC3)cc12
CC50 [13]: > 25 µM (active) | EC50 [14]: 7.98 µM (active) | AC50 [12]: 31.2 µM (active)

CCn1c(SCC(=O)c2c[nH]c3ccccc23)nnc1-c1cccs1
IC50 [8]: 60.5 µM (active) | IC50 [9]: 24.3 µM (active) | IC50 [10]: > 100 µM (inactive)
